In publication PMC12040169 (PLOS Biology, 2025):

Assay: in vitro
Details: human, hela cells, % viability

Compared with COc1cc(Nc2cccc3c2C(=O)c2ccccc2C3=O)c(OC)cc1C=O [CBK262677], COc1cc(/C=C2\C(=O)N(c3ccccc3Cl)N=C2c2ccccc2)ccc1O [CBK265698] is lower in viability at 28.5 h, 10 µM: 109% for the first, 82.8% for the second.

First: CC(=O)N1CCC(c2c(C(=O)Nc3cccc(CN4CCCC4)c3)sc3ccccc23)C1 (stereo not shown) [CBK285892]
Second: Cn1c(=O)c2c(nc(CN3CCCCC3)n2CCCc2ccccc2)n(C)c1=O [CBK269521]
The viability at 28.5 h, 10 µM of the first is higher: 110% for the first, 96.5% for the second.

Compared with CCC(CN1CCOCC1)NC(=O)Cc1coc2cc(C)ccc12 (stereo not shown) [CBK282791], Cc1ccc(NC(=O)NCCC2=CCCCC2)cc1Cl [CBK044135] is higher in viability at 28.5 h, 10 µM: 93.3% for the first, 110% for the second.

Going from COc1ccc([C@@]23CCN(C(=O)c4ccc(Cl)c(Cl)c4)C[C@@H]2CN(C)C3)cc1OC [CBK074308T] to COc1ccc(C(=O)N2CCC3(CCN(CCN4CCCCC4)C3)C2)cc1OC (stereo not shown) [CBK137113T], the viability at 28.5 h, 10 µM rises from 99.4% to 103%.

First: CCc1[nH]nc(C)c1Cc1c(Cl)cccc1Cl [CBK093598]
Second: CCCc1[nH]nc(O)c1C(=O)c1c(F)cccc1Cl [CBK103524]
The viability at 28.5 h, 10 µM of the first is higher: 106% for the first, 103% for the second.

Compared with Cc1cc(Br)ccc1C(=O)N1CC(C(N)=O)CCC1C (stereo not shown) [CBK305954], Cc1cc(C)n2ncc(C(=O)N3CCCC3c3ccc(F)cc3)c2n1 (stereo not shown) [CBK305885] is lower in viability at 28.5 h, 10 µM: 83.2% for the first, 82.9% for the second.

Going from CCCC/C=C/c1cnc2[nH]c(=O)n(CCc3cccnc3)c2n1 [CBK064496] to O=c1[nH]c2ncc(-c3ccco3)nc2n1CCc1cccnc1 [CBK064494], the viability at 28.5 h, 10 µM rises from 92.7% to 94.7%.

First: CS(=O)(=O)N(CC(=O)Nc1ccccc1-c1ccccc1)c1ccc(F)c(Cl)c1 [CBK268539]
Second: CC(=O)N1CC(C(=O)Nc2ccccc2Cc2ccccc2)Oc2ccccc21 (stereo not shown) [CBK297525]
The viability at 28.5 h, 10 µM of the first is higher: 91.2% for the first, 88.6% for the second.

Going from O=C(Cn1cccc(C(=O)NC2CCCCC2)c1=O)NC1(c2ccccc2)CCCC1 [CBK286059] to O=C(NC1CCCC1)c1ccc2nccnc2c1 [CBK200217], the viability at 28.5 h, 10 µM rises from 85.1% to 102%.

Going from COc1ccccc1OCC(=O)NCc1ccc(-c2csnn2)cc1 [CBK149303] to COc1ccc(-c2cc(C(=O)NCCc3c[nH]c4ccccc34)cnc2-c2ccc(F)cc2)cn1 [CBK036649], the viability at 28.5 h, 10 µM falls from 99.5% to 95.2%.

Going from Cc1cccc(-n2c(CCc3ccccc3)nnc2SCC(=O)c2ccccc2)c1 [CBK266369] to CC1=C(C(=O)Nc2ccccc2)C(c2ccccc2)C(C#N)=C(SCc2ccncc2)N1 (stereo not shown) [CBK267448], the viability at 28.5 h, 10 µM falls from 94% to 90.2%.

First: CCN(Cc1ccccc1)C(=O)Nc1ccc(C)cc1 [CBK155248]
Second: Oc1cccnc1CCc1ccccc1 [CBK026334C]
The viability at 28.5 h, 10 µM of the first is lower: 99.1% for the first, 100% for the second.

Compared with O=C(CCC1CCCC1)N1CCC(O)(c2cccnc2)CC1 [CBK283603], N#Cc1c(NC(=O)c2cccnc2)sc2c1CCCCC2 [CBK287584] is lower in viability at 28.5 h, 10 µM: 101% for the first, 98.6% for the second.

Compared with c1cc2c3c(ccc(CSCCc4ccncc4)c3c1)CC2 [CBK261074G], O=C(O)c1ccc(CSc2nnc(-c3ccncc3)o2)cc1 [CBK266352] is higher in viability at 28.5 h, 10 µM: 90.4% for the first, 98.5% for the second.

First: O=C(COc1ccccc1C1CC(=O)Nc2ccc3ccccc3c21)Nc1ccccc1 (stereo not shown) [CBK265704]
Second: O=C(CNS(=O)(=O)c1ccc(Oc2ccccc2)cc1)Nc1ccc(F)cc1 [CBK042229]
The viability at 28.5 h, 10 µM of the first is lower: 97.3% for the first, 104% for the second.

Going from CN(C)CCCN1C(=O)C(O)=C(C(=O)c2ccccc2)C1c1ccccn1 (stereo not shown) [CBK287778] to CCS(=O)(=O)c1nc2ccccc2n1CC(=O)Nc1ccccc1C(=O)OC [CBK267877], the viability at 28.5 h, 10 µM falls from 110% to 90%.

First: COc1ccc(CCNC(=S)NC2CC3CCC2C3)cc1OC (stereo not shown) [CBK015410]
Second: COc1ccc(CCC(=O)Nc2cccc(-c3ccc(OC4CCNCC4)cc3)c2)cc1OC [CBK131925T]
The viability at 28.5 h, 10 µM of the first is lower: 90.8% for the first, 100% for the second.

Compared with Cc1cc(=O)n2c3c(cc(S(=O)(=O)NCC4CCCO4)cc13)CC2 (stereo not shown) [CBK307595], COc1ccc(S(=O)(=O)N2CCSC2)cc1C [CBK097882] is higher in viability at 28.5 h, 10 µM: 103% for the first, 106% for the second.

First: CC1CCCN(CC(C)(C)NC(=O)c2cc(C3CC3)on2)C1 (stereo not shown) [CBK281677]
Second: CCCC(=O)N1CCCCC1c1nn(C)cc1-c1onc(C)c1C (stereo not shown) [CBK283409]
The viability at 28.5 h, 10 µM of the first is higher: 94.6% for the first, 80.5% for the second.

Going from COc1ccc(C2C(C(=O)Nc3ccc(C)cc3)=C(C)Nc3ncnn32)cc1OC (stereo not shown) [CBK294416] to COc1ccc(Nc2cc(Cl)ccc2C(=O)Nc2ccncc2)cn1 [CBK107434], the viability at 28.5 h, 10 µM rises from 90.9% to 96.3%.

Compared with CCCCCNC(=N)NC1Cc2ccccc2C1 [CBK036321T], CCCc1cc(O)nc(SCCCCn2ccnc2C)n1 [CBK306359] is higher in viability at 28.5 h, 10 µM: 98.8% for the first, 107% for the second.

Going from CC(C)NC(=O)N1Cc2nc[nH]c2C[C@H]1C(=O)NCc1ccco1 [CBK288974] to Cc1nc(C)n(CCNC(=O)C(C)Cc2cccs2)n1 (stereo not shown) [CBK282067], the viability at 28.5 h, 10 µM falls from 92.9% to 79.7%.

Going from Cc1ccc(CNc2nc3c(c(=O)[nH]c(=O)n3C)n2CC(O)COC(C)C)cc1 (stereo not shown) [CBK139849] to Cc1ccc2c(c1)nc(CNC(=O)NCc1ccnc(C)n1)n2C [CBK304292], the viability at 28.5 h, 10 µM rises from 87.3% to 101%.

Going from CC(C)(C)c1ccc(-c2cnc(N)c(-c3ccc(C(=O)N4CCOCC4)cc3)n2)cc1 [CBK084543A] to Cc1nc(COc2ccc(Cl)cc2)sc1C(=O)N1CCC1 [CBK306353], the viability at 28.5 h, 10 µM falls from 98.2% to 88.5%.

First: Cc1cccc(/N=C2\NC(=O)C(Cc3ccc(C)c(Cl)c3)S2)n1 (stereo not shown) [CBK265597]
Second: COC(=O)c1cccc(COC(=O)c2ccc3nc(C)c(C)nc3c2)c1 [CBK269641]
The viability at 28.5 h, 10 µM of the first is higher: 106% for the first, 95.2% for the second.

Going from COCCn1c(CN2CCC(Cc3ccccc3)CC2)nc2c1c(=O)n(C)c(=O)n2C [CBK269378] to Cn1nc([N+](=O)[O-])nc1OCc1nc2ccccc2n1C [CBK265247], the viability at 28.5 h, 10 µM falls from 99.1% to 88.9%.

Compared with COc1cccc2c3c([nH]c12)CCCC3 [CBK000331], Cc1nc2c(c(=O)[nH]1)CC[C@@H]1CN(C(=O)c3occ4ccccc34)C[C@H]21 [CBK284408] is higher in viability at 28.5 h, 10 µM: 95.8% for the first, 101% for the second.

Compared with COc1ccc(N2CCN(c3cc(-c4ccccc4OCc4ccccc4)ncn3)CC2)cc1OC [CBK091024], Cc1cc(NC(=O)c2ccc3ccccc3c2)nc2c1c(=O)oc1ccccc12 [CBK291122] is higher in viability at 28.5 h, 10 µM: 97.5% for the first, 117% for the second.

Compared with CC1(C)Cc2c(c(-c3ccco3)nc3n[nH]c(N)c23)CO1 [CBK009252], Cc1noc(C)c1NC(=O)c1nccc2ccccc12 [CBK200310] is higher in viability at 28.5 h, 10 µM: 84.3% for the first, 93.3% for the second.

Compared with O=C1COc2ccccc2CCCC[C@@H]2CNCC[C@H]2N1 [CBK292038], O=C1N[C@@H]2CCN(C(=O)Cc3ccc(O)cc3)C[C@@H]2C/C=C/CCOc2ccccc21 [CBK292043] is lower in viability at 28.5 h, 10 µM: 105% for the first, 103% for the second.

First: CC(C)CCNC(=O)N1CCC(C(=O)O)CC1 [CBK156075]
Second: O=C(Cc1cc(F)c(F)c(F)c1)Nc1ccc2[nH]ccc2c1 [CBK159684]
The viability at 28.5 h, 10 µM of the first is higher: 95.3% for the first, 91.7% for the second.

For FC(F)(F)Oc1ccc(-c2cc(NCCc3ccccn3)ncn2)cc1 [CBK037732], the viability at 28.5 h, 10 µM was 98.2%.

Same assay, conditions: human, hela cells, % viability, bulk resorufin, single well

In the case of Cc1ccc(OCCn2cc(/C=C3/C(=O)NC(=O)N(Cc4ccco4)C3=O)c3ccccc32)cc1 [CBK263936], the viability at 28.5 h, 10 µM is reported as 92.9%.
